The values that follow come from article PMC11641365, “Evaluation of In Vitro Biological Activity of Flavanone/Chromanone Derivatives: Molecular Analysis of Anticancer Mechanisms in Colorectal Cancer” (International Journal of Molecular Sciences, 2024).

The test system of assay [1] is poly-ADP ribose polymerase (PARP). Also noted: method as in PMID 35682740. Conditions: previous work of the authors; cited from earlier work.
The next assay relates to LoVo. Description: MTT cell viability assay. The assay is classed as cell-based. As to conditions: Homo sapiens, 24 h incubation with compound, mean ± SD of three experiments, read-out: Cytotoxic effect, IC50. The method, then: (§1) The cytotoxic activity of the 3-benzylideneflavanones, 3-benzylidenechromanones derivatives (compounds 1, 2, 3, 4, 5) and 5′-(3-methoxyphenyl)-2-phenyl-4′,5′-dihydro-4H-spiro[chromano-3,3′-pirazol]-4-one (compound 3a) was evaluated using the MTT assay (4,5-dimethylthiazol-2-yl)-2,5-diphenyltetrazoliumbromide), a colorimetric method that quantifies cell viability.
(§2) Cell viability was determined using the metabolic microplate spectrophotometric assay with Methylthiazolyl diphenyltetrazolium bromide (MTT) (Sigma-Aldrich; St. Louis, MO, USA). The MTT method belongs to metabolic tests for determining cell viability and consists of measuring the absorbance of a violet solution of formazan, a product of the reduction of a water-soluble yellow MTT by oxidoreductive enzymes (mainly mitochondrial succinate dehydrogenase) of living cells. The amount of the reaction product (water-insoluble formazan crystals) is proportional to the number of living and metabolically active cells in the sample. In the case of damaged or dead cells, formazan is formed in smaller amounts, or it is not formed.
(§3) The appropriate number of cells for a given cell line (6–8 × 10^3 cells/mL) were seeded onto colorless, sterile 96-well microplates (Nunc, Roskilde, Denmark) in the number appropriate for a given cell line. After 24 h of culture, various concentrations of the studied compounds (10^−7–10^−5 M) freshly prepared in DMSO (final concentration DMS < 0.1%) and diluted with complete culture medium were added and incubated in a CO2 incubator for 24 h. After this time, the medium was removed; the cell monolayer was washed twice with sterile PBS solution; and fresh culture medium was added to the microplate wells. After 48 h of cell culture, the MTT test was performed. A volume of 50 μL of tetrazolium salt solution (final concentration 0.05 mg/mL) was added to each microplate well. The microplate was placed for 3–4 h (depending on the cell line) in a CO2 incubator. After incubation, 100 μL of DMSO was added to the wells of the microplate to dissolve the purple formazan crystals formed in the living cell environment. The absorbance of the formazan solution, after gentle mixing, was read at a wavelength of λ = 580 nm and a reference wavelength of λ = 720 nm (Biotek Power Wave HT, Biotek Instruments, Winooski, VT, USA). The percentage of living cells was calculated by comparing the absorbance value of the tested samples with the absorbance value of the control (cells not treated with compounds). The absorbance of the control was taken as 100%.

The subject of a further assay is HCT 116. Description: MTT cell viability assay. The assay is classed as cell-based. As to conditions: Homo sapiens, 24 h incubation with compound, mean ± SD of three experiments, read-out: Cytotoxic effect, IC50. The method, then: as §1, §2, §3
On the technique in general: Tetrazolium assays rely on reduction of a dye to a coloured formazan, in cell work by metabolically active cells.

A further assay concerns SW620. The assay can be described thus: MTT cell viability assay. Format: cell-based. As to conditions: Homo sapiens, SW-620, 24 h incubation with compound, mean ± SD of three experiments, read-out: Cytotoxic effect, IC50. The protocol: as §1, §2, §3
A further assay relates to Caco-2. The assay can be described thus: MTT cell viability assay. The assay is classed as cell-based, human. Conditions: Homo sapiens, Caco-2, 24 h, 24 h incubation with compound, mean ± SD of three experiments, read-out: Cytotoxic effect, IC50. The protocol: as §1, §2, §3
Another assay relates to HT-29. Description: MTT cell viability assay. Format: cell-based, human. Conditions: Homo sapiens, HT-29, 24 h, HT-29, 24 h incubation with compound, mean ± SD of three experiments, read-out: Cytotoxic effect, IC50. The protocol: as §1, §2, §3
In assay [2] the test system is human colon cancer cell lines: HCT 116, SW620, LoVo, Caco-2, and HT-29. The assay can be described thus: MTT cell viability assay, statements across the panel. Format: cell-based. As to conditions: Homo sapiens, range over the cancer cell lines, read-out: IC50 range against colon cancer cell lines. The protocol: The cytotoxic activity of the 3-benzylideneflavanones, 3-benzylidenechromanones derivatives (compounds 1, 2, 3, 4, 5) and 5′-(3-methoxyphenyl)-2-phenyl-4′,5′-dihydro-4H-spiro[chromano-3,3′-pirazol]-4-one (compound 3a) was evaluated using the MTT assay (4,5-dimethylthiazol-2-yl)-2,5-diphenyltetrazoliumbromide), a colorimetric method that quantifies cell viability. […] These IC50 values were subsequently used for all experiments investigating the anticancer activity of the flavanone/chromanone derivatives in this study.
as §2
as §3, with “100%. […] Moreover, cisplatin (Sigma-Aldrich, St. Louis, MO, USA) was used as a reference compound, and identical incubation conditions were used as described above.” for “100%.”

The term IC50 denotes the concentration that gives 50% inhibition.

As for `Cc1cccc(C2CC3(N=N2)C(=O)c2ccccc2OC3c2ccccc2)c1` (stereo not shown) [5′-(3-methylphenyl)-2-phenyl-4′,5′-dihydro-4H-spiro[chromano-3,3′-pirazol]-4-one], in assay [1], the “Interaction with PARP” value was “effectively interacted with poly-ADP ribose polymerase (PARP), leading to its inactivation and degradation”.
As for `Cc1ccc(/C=C2/C(=O)c3ccccc3OC2c2ccccc2)cc1` (stereo not shown) [Compound 4], the half-inhibitory concentration (IC50) in the assay with LoVo was 178 ± 4.4 µM; with HCT 116, 113 ± 5.1 µM; with SW620, above 250 µM; in the assay on Caco-2, 156 ± 5.2 µM; with HT-29 it was 172 ± 4.2 µM; in assay [2] it was 70 to 210 µM.
As for `CCN(CC)c1ccc(/C=C2/C(=O)c3ccccc3OC2c2ccccc2)cc1` (stereo not shown) [Compound 2], the IC50 in the assay on LoVo was 200 ± 6.6 µM; in the assay with HCT 116, 192 ± 3.4 µM; in the assay with SW620, 211 ± 2.9 µM; with Caco-2, above 250 µM; in the assay with HT-29, above 250 µM; in assay [2], 70 to 210 µM.
